Assay results published in patent US20240209028A1, “CNP COMPOUNDS” (priority 2022, published 2024).
Starred links: 1 amine or outer side, 2 acyl side, 3 side chain; linkers in the order of their positions; H or OH if unused. Positions of bridges follow the written chain, without caps; N, C: chain ends. Residues, ends and D or L forms follow the SMILES beside them. *: point of attachment. C18 diacid = O=C(O)CCCCCCCCCCCCCCCCC(=O)*; γGlu = O=C(O)[C@H](CCC(=O)[*:2])N[*:1]; AEEA = NCCOCCOCC(=O)O

Each compound was assayed against T1, human natriuretic peptide receptor 2 (hNPR2) (Homo sapiens, UniProt P20594) (assay: In vitro hNPR2 activity assay (cGMP GloSensor reporter, HEK293)). Conditions: potency relative to CNP22 (0065).
T1 construct: expressed in transfected cells; host or cells: HEK293 (ATCC CRL-1573), clone 35, co-transfected with pGloSensor-42F
T1 sequence (P20594 23-1047): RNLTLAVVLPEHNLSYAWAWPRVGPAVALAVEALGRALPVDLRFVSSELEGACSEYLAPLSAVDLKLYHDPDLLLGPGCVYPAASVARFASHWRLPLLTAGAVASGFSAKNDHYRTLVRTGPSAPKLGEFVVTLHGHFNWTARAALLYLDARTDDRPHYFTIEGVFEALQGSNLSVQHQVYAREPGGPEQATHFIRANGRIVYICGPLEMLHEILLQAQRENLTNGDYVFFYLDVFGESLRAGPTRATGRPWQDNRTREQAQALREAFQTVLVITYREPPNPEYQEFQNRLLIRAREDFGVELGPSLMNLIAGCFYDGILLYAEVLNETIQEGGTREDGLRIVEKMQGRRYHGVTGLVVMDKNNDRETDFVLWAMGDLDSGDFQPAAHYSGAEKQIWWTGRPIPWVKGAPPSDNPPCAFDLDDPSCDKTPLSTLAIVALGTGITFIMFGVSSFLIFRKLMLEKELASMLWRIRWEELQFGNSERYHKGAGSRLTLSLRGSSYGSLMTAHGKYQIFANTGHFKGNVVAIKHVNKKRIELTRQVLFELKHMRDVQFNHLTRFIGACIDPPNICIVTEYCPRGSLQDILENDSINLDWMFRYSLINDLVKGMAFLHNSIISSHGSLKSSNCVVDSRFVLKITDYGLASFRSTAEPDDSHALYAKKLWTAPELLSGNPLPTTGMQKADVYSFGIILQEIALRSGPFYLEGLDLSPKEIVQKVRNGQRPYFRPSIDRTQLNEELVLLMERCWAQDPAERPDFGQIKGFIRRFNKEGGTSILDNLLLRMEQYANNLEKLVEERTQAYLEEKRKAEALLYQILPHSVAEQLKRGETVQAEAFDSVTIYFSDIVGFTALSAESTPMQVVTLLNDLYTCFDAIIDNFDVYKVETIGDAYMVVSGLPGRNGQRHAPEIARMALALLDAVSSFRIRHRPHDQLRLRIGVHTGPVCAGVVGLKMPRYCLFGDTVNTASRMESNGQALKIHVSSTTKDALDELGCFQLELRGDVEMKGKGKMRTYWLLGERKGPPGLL
Format: cell-based
In short: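 Potency is the EC50 from a four-parameter logistic fit, also expressed relative to the in-plate CNP22 control (×100), with at least two replicates. Compounds (ten concentrations, […], HSA-free diluent with 1% OVA, 0.01% Tween20) were incubated 30 min at 37 °C on HEK293 cells co-expressing hNPR2 and a GloSensor cGMP luciferase. Luminescence detected with Bright-Glo.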

SMILES | hNPR2 0% HSA. [EC50% rel CNP] [%]
CC[C@H](C)[C@@H]1NC(=O)[C@H](CCCNC(=N)N)NC(=O)[C@H](CC(=O)O)NC(=O)[C@H](CC(C)C)NC(=O)[C@@H]2CCCN2C(=O)[C@H](CC(C)C)NC(=O)CNC(=O)[C@H](Cc2ccccc2)NC(=O)[C@@H](NC(=O)CNC(=O)[C@H](CCC(N)=O)NC(=O)[C@H](CO)NC(=O)[C@H](CC(C)C)NC(=O)CNC(=O)[C@H](CCCCN)NC(=O)[C@H](CCCCN)NC(=O)[C@H](CCC(N)=O)NC(=O)[C@H](C)NC(=O)CNC(=O)[C@H](CCCCN)NC(=O)[C@H](Cc2ccc(O)cc2)NC(=O)[C@H](CCCCN)NC(=O)[C@H](CCCNC(=N)N)NC(=O)[C@H](C)NC(=O)COCCOCCNC(=O)COCCOCCNC(=O)COCCOCCNC(=O)COCCOCCNC(=O)CC[C@H](NC(=O)CC[C@H](NC(=O)CC[C@H](NC(=O)CC[C@H](NC(=O)CCCCCCCCCCCCCCCCC(=O)O)C(=O)O)C(=O)O)C(=O)O)C(=O)O)CSSC[C@@H](C(=O)O)NC(=O)CNC(=O)[C@H](CC(C)C)NC(=O)CNC(=O)[C@H](CO)NC(=O)[C@H](CC(C)C)NC(=O)[C@H](CO)NC(=O)CNC1=O [compound 1454] ({C18 diacid-γGlu-γGlu-γGlu-γGlu-AEEA-AEEA-AEEA-AEEA}-ARKYKGAQKKGLSQGCFGLPLDRIGSLSGLGC-OH; disulfide 16-32; C-terminus assumed) | 63.6
CC[C@H](C)[C@@H]1NC(=O)[C@H](CCCNC(=N)N)NC(=O)[C@H](CC(=O)O)NC(=O)[C@H](CC(C)C)NC(=O)[C@@H]2CCCN2C(=O)[C@H](CC(C)C)NC(=O)CNC(=O)[C@H](Cc2ccccc2)NC(=O)[C@@H](NC(=O)CNC(=O)[C@H](CO)NC(=O)[C@H](CO)NC(=O)[C@H](CC(C)C)NC(=O)CNC(=O)[C@@H](NC(=O)[C@H](Cc2c[nH]cn2)NC(=O)[C@H](CCC(N)=O)NC(=O)[C@H](C)NC(=O)CNC(=O)[C@H](Cc2c[nH]cn2)NC(=O)[C@H](Cc2ccc(O)cc2)NC(=O)[C@H](CCCCN)NC(=O)[C@H](CCCNC(=N)N)NC(=O)[C@H](C)NC(=O)COCCOCCNC(=O)COCCOCCNC(=O)CC[C@H](NC(=O)CCCCCCCCCCCCCCCCC(=O)O)C(=O)O)[C@@H](C)O)CSSC[C@@H](C(=O)O)NC(=O)CNC(=O)[C@H](CC(C)C)NC(=O)CNC(=O)[C@H](CO)NC(=O)[C@H](CC(C)C)NC(=O)[C@H](CO)NC(=O)CNC1=O [compound 1350] ({C18 diacid-γGlu-AEEA-AEEA}-ARKYHGAQHTGLSSGCFGLPLDRIGSLSGLGC-OH; disulfide 16-32) | 41.0
CC[C@H](C)[C@@H]1NC(=O)[C@H](CCCNC(=N)N)NC(=O)[C@H](CC(=O)O)NC(=O)[C@H](CC(C)C)NC(=O)[C@@H]2CCCN2C(=O)[C@H](CC(C)C)NC(=O)CNC(=O)[C@H](Cc2ccccc2)NC(=O)[C@@H](NC(=O)CNC(=O)[C@H](CO)NC(=O)[C@H](CO)NC(=O)[C@H](CC(C)C)NC(=O)CNC(=O)[C@H](CCCCN)NC(=O)[C@H](CCCCN)NC(=O)[C@H](CCC(N)=O)NC(=O)[C@H](C)NC(=O)CNC(=O)[C@H](CCCCN)NC(=O)[C@H](Cc2ccc(O)cc2)NC(=O)CNC(=O)CNC(=O)CNC(=O)CC[C@H](NC(=O)CC[C@H](NC(=O)CC[C@H](NC(=O)CC[C@H](NC(=O)CCCCCCCCCCCCCCCCC(=O)O)C(=O)O)C(=O)O)C(=O)O)C(=O)O)CSSC[C@@H](C(=O)O)NC(=O)CNC(=O)[C@H](CC(C)C)NC(=O)CNC(=O)[C@H](CO)NC(=O)[C@H](CC(C)C)NC(=O)[C@H](CO)NC(=O)CNC1=O [compound 1387] ({C18 diacid-γGlu-γGlu-γGlu-γGlu}-GGGYKGAQKKGLSSGCFGLPLDRIGSLSGLGC-OH; disulfide 16-32; C-terminus assumed) | 20.6
CC[C@H](C)[C@@H]1NC(=O)[C@H](CCCNC(=N)N)NC(=O)[C@H](CC(=O)O)NC(=O)[C@H](CC(C)C)NC(=O)[C@@H]2CCCN2C(=O)[C@H](CC(C)C)NC(=O)CNC(=O)[C@H](Cc2ccccc2)NC(=O)[C@@H](NC(=O)CNC(=O)[C@H](CO)NC(=O)[C@H](CO)NC(=O)[C@H](CC(C)C)NC(=O)CNC(=O)[C@H](CCCCN)NC(=O)[C@H](CCC(=O)O)NC(=O)[C@H](CCC(N)=O)NC(=O)[C@H](C)NC(=O)CNC(=O)[C@H](Cc2c[nH]cn2)NC(=O)[C@H](Cc2ccc(O)cc2)NC(=O)COCCOCCNC(=O)COCCOCCNC(=O)CC[C@H](NC(=O)CCCCCCCCCCCCCCCCC(=O)O)C(=O)O)CSSC[C@@H](C(=O)O)NC(=O)CNC(=O)[C@H](CC(C)C)NC(=O)CNC(=O)[C@H](CO)NC(=O)[C@H](CC(C)C)NC(=O)[C@H](CO)NC(=O)CNC1=O [compound 1242] ({C18 diacid-γGlu-AEEA-AEEA}-YHGAQEKGLSSGCFGLPLDRIGSLSGLGC-OH; disulfide 13-29) | 5.4
CC[C@H](C)[C@@H]1NC(=O)[C@H](CCCNC(=N)N)NC(=O)[C@H](CC(=O)O)NC(=O)[C@H](CC(C)C)NC(=O)[C@@H]2CCCN2C(=O)[C@H](CC(C)C)NC(=O)CNC(=O)[C@H](Cc2ccccc2)NC(=O)[C@@H](NC(=O)CNC(=O)[C@H](CO)NC(=O)[C@H](CO)NC(=O)[C@@H](NC(=O)CNC(=O)[C@@H](NC(=O)[C@H](CCCCN)NC(=O)[C@H](CCC(N)=O)NC(=O)[C@H](C)NC(=O)CNC(=O)[C@H](Cc2c[nH]cn2)NC(=O)[C@H](CCC(=O)O)NC(=O)COCCOCCNC(=O)COCCOCCNC(=O)CC[C@H](NC(=O)CCCCCCCCCCCCCCCCC(=O)O)C(=O)O)[C@@H](C)O)C(C)C)CSSC[C@@H](C(=O)O)NC(=O)CNC(=O)[C@H](CC(C)C)NC(=O)CNC(=O)[C@H](CO)NC(=O)[C@H](CC(C)C)NC(=O)[C@H](CO)NC(=O)CNC1=O [compound 1312] ({C18 diacid-γGlu-AEEA-AEEA}-EHGAQKTGVSSGCFGLPLDRIGSLSGLGC-OH; disulfide 13-29) | 9.0
CC[C@H](C)[C@@H]1NC(=O)[C@H](CCCNC(=N)N)NC(=O)[C@H](CC(=O)O)NC(=O)[C@H](CC(C)C)NC(=O)[C@@H]2CCCN2C(=O)[C@H](CC(C)C)NC(=O)CNC(=O)[C@H](Cc2ccccc2)NC(=O)[C@@H](NC(=O)CNC(=O)[C@H](CCC(N)=O)NC(=O)[C@H](CO)NC(=O)[C@H](CC(C)C)NC(=O)CNC(=O)[C@H](CCCCN)NC(=O)[C@H](CCCCN)NC(=O)[C@H](CCC(N)=O)NC(=O)[C@H](C)NC(=O)CNC(=O)[C@H](CCC(=O)O)NC(=O)[C@H](Cc2ccc(O)cc2)NC(=O)[C@H](CCCCN)NC(=O)[C@H](C)NC(=O)[C@H](C)NC(=O)[C@H](CCC(N)=O)NC(=O)[C@@H]2CCCN2C(=O)[C@H](Cc2c[nH]cn2)NC(=O)[C@H](CCC(=O)O)NC(=O)[C@H](CCC(N)=O)NC(=O)COCCOCCNC(=O)COCCOCCNC(=O)CC[C@H](NC(=O)CCCCCCCCCCCCCCCCC(=O)O)C(=O)O)CSSC[C@@H](C(=O)O)NC(=O)CNC(=O)[C@H](CC(C)C)NC(=O)CNC(=O)[C@H](CO)NC(=O)[C@H](CC(C)C)NC(=O)[C@H](CO)NC(=O)CNC1=O [compound 1395] ({C18 diacid-γGlu-AEEA-AEEA}-QEHPQAAKYEGAQKKGLSQGCFGLPLDRIGSLSGLGC-OH; disulfide 21-37) | 60.2
CC[C@H](C)[C@@H]1NC(=O)[C@H](CCCNC(=N)N)NC(=O)[C@H](CC(=O)O)NC(=O)[C@H](CC(C)C)NC(=O)[C@@H]2CCCN2C(=O)[C@H](CC(C)C)NC(=O)CNC(=O)[C@H](Cc2ccccc2)NC(=O)[C@@H](NC(=O)CNC(=O)[C@H](CCC(N)=O)NC(=O)[C@H](CO)NC(=O)[C@@H](NC(=O)CNC(=O)[C@H](CCCCN)NC(=O)[C@H](CCCCN)NC(=O)[C@H](CCC(N)=O)NC(=O)[C@H](C)NC(=O)CNC(=O)[C@H](Cc2c[nH]cn2)NC(=O)[C@H](Cc2ccc(O)cc2)NC(=O)COCCOCCNC(=O)COCCOCCNC(=O)COCCOCCNC(=O)COCCOCCNC(=O)CC[C@H](NC(=O)CC[C@H](NC(=O)CCCCCCCCCCCCCCCCC(=O)O)C(=O)O)C(=O)O)C(C)C)CSSC[C@@H](C(=O)O)NC(=O)CNC(=O)[C@H](CC(C)C)NC(=O)CNC(=O)[C@H](CO)NC(=O)[C@H](CC(C)C)NC(=O)[C@H](CO)NC(=O)CNC1=O [compound 1437] ({C18 diacid-γGlu-γGlu-AEEA-AEEA-AEEA-AEEA}-YHGAQKKGVSQGCFGLPLDRIGSLSGLGC-OH; disulfide 13-29) | 19.9
